Blank lines part the entries; values can stand above or below the compound they belong to.
What was measured:
B16 melanoma 4A5 cell = assay: Whitening test: theophylline-induced melanine production in B16 melanoma 4A5 cells; type: cell-based, mouse; conditions: sample at a concentration of 100 μM or less; theophylline-induced melanine production; 3 days culture; N=4;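 note: grades: ± under 20% + 20-40% ++ 40-70% +++ 70-100% suppression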
Procedure: As a test for a whitening effect, evaluation of the action of B16 melanoma 4A5 cell on theophylline-induced melanine production was carried out on an ascorbic acid derivative of the present invention, according to the following procedure. The same evaluation was carried out also on ascorbic acid, known compounds: ascorbic acid salts, and ascorbic acid derivatives, as comparison. The results are shown in Tables 38 to 40. • (1) B16 mouse melanoma 4A5 strain was sowed onto a 48-well plate at a cell density of 2.0×10^4 cells/well. • (2) Culturing was performed for 24 hours with Dulbecco's Modified Eagle's medium (manufactured by SIGMA. Hereinafter, abbreviated as D-MEM) containing 10% fetal bovine serum (manufactured by Roshe Diagnostics). Then, it was changed to 0.2 mM theophylline and a 10% fetal bovine serum-containing D-MEM which contains a sample of given concentration. • (3) After culturing for 3 days in the co-existence of a sample, the medium was removed using an aspirator. Then, after distilled water was added, cells were broken by an ultrasonic wave. • (4) Thereafter, the amount of protein was determined using BCA protein assay kit (manufactured by PIERCE), and the produced amount of melanine was measured by an alkali solubilizing method. To the cell-destructed solution was added sodium hydroxide so as to give a final concentration of 2N and the mixture was dissolved by heating (60° C., 15 minutes), then, the absorbance at 450 nm was measured using a micro plate reader. The melanine amount was calculated from a calibration curve made using synthetic melanine (SIGMA) as a standard. The melanine amount per unit protein was calculated by dividing the melanine amount by the protein amount. • (5) The melanine production suppressing rate was calculated according to the following formula. Melanine production suppressing rate (%)=[1−(A−B)/(C−B)]×100 [wherein, A represents the melanine amount per unit protein (g/g) in adding a sample, B represents the melanine amount per unit protein (g/g) in the normal group, and C represents the melanine amount per unit protein (g/g) in the control group.]
In the following Tables, the melanine production suppressing rate in measuring a sample at a concentration of 100 μM or less is expressed as described below. The measurement was carried out at N=4.

[1] = system: Normal human dermal fibroblasts; assay: Collagen production of human fibroblast (Sircol collagen assay, 100 μM, 48 hours); type: cell-based; conditions: cultured 48 hours; for activity at 100 µM: Homo sapiens, Fibroblast, N=4, read-out: Collagen production promoting effect (collagen production amount, % of control group); for Collagen production promoting effect (collagen production amount, % of control group): N=4
Procedure: (§1) Normal human dermal fibroblasts were regulated with a 10% (v/v) fetal bovine serum (manufactured by Roshe Diagnostics)-containing D-MEM so as to give a cell density of 2.5×10^4 cells/well, then, pre-incubation for 24 hours was performed on a 96-well plate. After the medium was removed, a sample regulated with a 5% (v/v) fetal bovine serum-containing D-MEM to a concentration of 100 μM was added to each well, then, cultured for 48 hours under 37° C. and 5% CO2. After completion of culturing, the amount of free collagen was measured using Sircol collagen assay kit (manufactured by Biocolor). The measurement was carried out at N=4.
The collagen production amount in measuring a sample at a concentration of 100 μM was compared with the control group, and the results thereof (% value when the control group is 100%) are shown in Tables 44 and 45 based on the following standard.

[2] = system: Normal human dermal fibroblasts; assay: Collagen production of human fibroblast 2 (100 μM or 500 μM; 2, 4 and 7 days); type: cell-based; conditions: for Collagen production amount in comparison with the control group (% value when the control group is 100%): 100 μM or 500 μM (not stated which), average ± standard error, N=4
Procedure: as §1
Free collagen was measured under the same conditions as in Test Example 5 excepting that the concentration of each sample was 100 μM or 500 μM and culturing was carried out for 2 days, 4 days and 7 days. The measurement was carried out at N=4, and the average and standard error, in four test examples, of values of the collagen production amount in comparison with the control group (% value when the control group is 100%) are shown in Tables 46 and 47.

[3] = Stability Test 1: 2% aqueous solution, pH7, room temperature, 4 weeks (residual rate, odor, coloration); type: physicochemical
Procedure: (§2) Aqueous solutions (2%) of various test samples were adjusted to pH7 with a dilute sodium hydroxide aqueous solution, and charged into 50 mL screw tubes, and the tubes were sealed and stored at room temperature for 4 weeks. Thereafter, HPLC measurement were performed (using liquid chromatography manufactured by Tosoh Corp.) and the residual rate was obtained based on the peak area. The residual rate, odor(odor change) and degree of coloration were evaluated based on the following methods and standards, and the results are shown in Table 41.
◯: 80% or more and less than 90%
Δ: 60% or more and less than 80%
X: 20% or more and less than 60%
It was evaluated according to the following criterion by 10 panelists.
Based on the evaluation results, classification was conducted as shown below.
◯: total point of 10 panelists is 25 or more
Δ: total point of 10 panelists is 16 to 24
X: total point of 10 panelists is 15 or less
3: almost no change as compared with that immediately after preparation
2: coloration is observed as compared with that immediately after preparation
1: intense coloration is observed as compared with that immediately after preparation

[4] = Stability Test 2: 2% aqueous solution, pH7, 50° C., 4 weeks (residual rate, odor, coloration); type: physicochemical
Procedure: as §2
The same test as in Test Example 2 was carried out excepting that the sample was stored at 50° C. for 4 weeks instead of storing at room temperature for 4 weeks.

[5] = Table 47, culturing period 2 days
[6] = Table 47, culturing period 4 days
[7] = Table 47, culturing period 7 days
[8] = Table 46, culturing period 2 days
[9] = Table 46, culturing period 4 days
[10] = Table 46, culturing period 7 days
[11] = storage period 2 weeks, 10 panelists
[12] = storage period 4 weeks, 10 panelists

SMILES: CCCCCCCCC(O)COC1=C(OCC(O)CO)[C@@H]([C@@H](O)CO)OC1=O (stereo partly shown) [Example 29, 3-O-glyceryl-2-O-(2-hydroxydecyl) ascorbic acid]
Whitening effect (melanine production suppressing rate) (B16 melanoma 4A5 cell): + (20 to 40%:+)
activity at 100 µM [1]: 100 to 200%
Collagen production amount in comparison with the control group (% value when the control group is 100%) [2, 5]: 97 ± 19%
Collagen production amount in comparison with the control group (% value when the control group is 100%) [2, 6]: 116 ± 7%
Collagen production amount in comparison with the control group (% value when the control group is 100%) [2, 7]: 138 ± 3%

SMILES: CCCCCCCCOCC(O)COC1=C(OCC(O)CO)C(C(O)CO)OC1=O (stereo not shown) [Example 84]
Whitening effect (melanine production suppressing rate) (B16 melanoma 4A5 cell): + (20 to 40%:+)
Collagen production promoting effect (collagen production amount, % of control group) [1]: + (100 to 200%:+)
Collagen production amount in comparison with the control group (% value when the control group is 100%) [2, 5]: 135 ± 11%
Collagen production amount in comparison with the control group (% value when the control group is 100%) [2, 6]: 154 ± 8%
Collagen production amount in comparison with the control group (% value when the control group is 100%) [2, 7]: 201 ± 16%

SMILES: O=C1O[C@H]([C@@H](O)CO)C([O-])=C1OP(=O)([O-])[O-].O=C1O[C@H]([C@@H](O)CO)C([O-])=C1OP(=O)([O-])[O-].[Mg+2].[Mg+2].[Mg+2] [magnesium ascorbyl phosphate, reference compound]
Whitening effect (melanine production suppressing rate) (B16 melanoma 4A5 cell): ± (<20%:±)
Collagen production promoting effect (collagen production amount, % of control group) [1]: + (100 to 200%:+)
collagen production promoting effect over time (in words) ([2]; 100 μM or 500 μM, culturing 2, 4 and 7 days): lowers over time
Collagen production amount in comparison with the control group (% value when the control group is 100%) [2, 8]: 276 ± 9%
Collagen production amount in comparison with the control group (% value when the control group is 100%) [2, 9]: 207 ± 24%
Collagen production amount in comparison with the control group (% value when the control group is 100%) [2, 10]: 191 ± 2%

Residual rate ([3]; storage period 0): ⊚ (⊚: 90% or more)
Residual rate ([3]; storage period 2 weeks): ⊚ (⊚: 90% or more)
Residual rate ([3]; storage period 4 weeks): ⊚ (⊚: 90% or more)
Residual rate ([4]; storage period 0): ⊚ (⊚: 90% or more)
Residual rate ([4]; storage period 2 weeks): ⊚ (⊚: 90% or more)
Residual rate ([4]; storage period 4 weeks): ⊚ (⊚: 90% or more)
SMILES: CCCCCCCCOC1=C(OCC(O)CO)[C@@H]([C@@H](O)CO)OC1=O (stereo partly shown) [Example 14, 3-O-glyceryl-2-O-octyl ascorbic acid]
Whitening effect (melanine production suppressing rate) (B16 melanoma 4A5 cell): +++ (70 to 100%:+++)
Coloration ([3]; storage period 0, 10 panelists): ◯ (◯: total point of 10 panelists is 25 or more)
Odor ([3]; storage period 0, 10 panelists): ◯ (◯: total point of 10 panelists is 25 or more)
Coloration [3, 11]: ◯ (◯: total point of 10 panelists is 25 or more)
Odor [3, 11]: ◯ (◯: total point of 10 panelists is 25 or more)
Coloration [3, 12]: ◯ (◯: total point of 10 panelists is 25 or more)
Odor [3, 12]: ◯ (◯: total point of 10 panelists is 25 or more)
Coloration ([4]; storage period 0, 10 panelists): ◯ (◯: total point of 10 panelists is 25 or more)
Odor ([4]; storage period 0, 10 panelists): ◯ (◯: total point of 10 panelists is 25 or more)
Coloration [4, 11]: ◯ (◯: total point of 10 panelists is 25 or more)
Odor [4, 11]: ◯ (◯: total point of 10 panelists is 25 or more)
Coloration [4, 12]: ◯ (◯: total point of 10 panelists is 25 or more)
Odor [4, 12]: ◯ (◯: total point of 10 panelists is 25 or more)
activity at 100 µM [1]: 100 to 200%
Collagen production amount in comparison with the control group (% value when the control group is 100%) [2, 5]: 132 ± 22%
Collagen production amount in comparison with the control group (% value when the control group is 100%) [2, 6]: 144 ± 9%
Collagen production amount in comparison with the control group (% value when the control group is 100%) [2, 7]: 238 ± 17%

Residual rate ([3]; storage period 0): ⊚ (⊚: 90% or more)
Residual rate ([3]; storage period 2 weeks): ◯ (◯: 80% or more and less than 90%)
Residual rate ([3]; storage period 4 weeks): ◯ (◯: 80% or more and less than 90%)
SMILES: O=C1OC(C(O)CO)C(OCC(O)CO)=C1O (stereo not shown) [Example 1, 3-O-glyceryl ascorbic acid]
Whitening effect (melanine production suppressing rate) (B16 melanoma 4A5 cell): + (20 to 40%:+)
Coloration ([3]; storage period 0, 10 panelists): ◯ (◯: total point of 10 panelists is 25 or more)
Odor ([3]; storage period 0, 10 panelists): ◯ (◯: total point of 10 panelists is 25 or more)
Coloration [3, 11]: ◯ (◯: total point of 10 panelists is 25 or more)
Odor [3, 11]: ◯ (◯: total point of 10 panelists is 25 or more)
Coloration [3, 12]: ◯ (◯: total point of 10 panelists is 25 or more)
Odor [3, 12]: ◯ (◯: total point of 10 panelists is 25 or more)
activity at 100 µM [1]: 100 to 200%
Collagen production amount in comparison with the control group (% value when the control group is 100%) [2, 8]: 182 ± 7%
Collagen production amount in comparison with the control group (% value when the control group is 100%) [2, 9]: 209 ± 8%
Collagen production amount in comparison with the control group (% value when the control group is 100%) [2, 10]: 219 ± 29%

SMILES: CCCCCCCCC(O)COC1=C(O)C(=O)O[C@@H]1[C@@H](O)CO (stereo partly shown) [Example 46]
Whitening effect (melanine production suppressing rate) (B16 melanoma 4A5 cell): ++ (40 to 70%:++)
Collagen production promoting effect (collagen production amount, % of control group) [1]: + (100 to 200%:+)
Collagen production amount in comparison with the control group (% value when the control group is 100%) [2, 5]: 152 ± 6%
Collagen production amount in comparison with the control group (% value when the control group is 100%) [2, 6]: 123 ± 11%
Collagen production amount in comparison with the control group (% value when the control group is 100%) [2, 7]: 254 ± 10%

SMILES: O=C1OC(C(O)CO)C(OC2CCCCC2O)=C1O (stereo not shown) [compound 11, 3-O-(2-hydroxycyclohexyl) ascorbic acid]
Whitening effect (melanine production suppressing rate) (B16 melanoma 4A5 cell): + (20 to 40%:+)
activity at 100 µM [1]: 100 to 200%

SMILES: CCCCOCC(O)COC1=C(OCC)C(C(O)CO)OC1=O (stereo not shown) [Example 97]
Whitening effect (melanine production suppressing rate) (B16 melanoma 4A5 cell): + (20 to 40%:+)
Collagen production promoting effect (collagen production amount, % of control group) [1]: + (100 to 200%:+)
Collagen production amount in comparison with the control group (% value when the control group is 100%) [2, 5]: 93 ± 4%
Collagen production amount in comparison with the control group (% value when the control group is 100%) [2, 6]: 111 ± 4%
Collagen production amount in comparison with the control group (% value when the control group is 100%) [2, 7]: 139 ± 15%

SMILES: CCCCOC1=C(OCC(O)CO)[C@@H]([C@@H](O)CO)OC1=O (stereo partly shown) [Example 57]
Whitening effect (melanine production suppressing rate) (B16 melanoma 4A5 cell): + (20 to 40%:+)
Collagen production promoting effect (collagen production amount, % of control group) [1]: + (100 to 200%:+)
